From patent publication US20170050957A1, “4-AMINO-6-(HETEROCYCLIC)PICOLINATES AND 6-AMINO-2-(HETEROCYCLIC)PYRIMIDINE-4-CARBOXYLATES AND THEIR USE AS HERBICIDES” (Dow AgroSciences LLC, priority 2013, published 2017)
Like-named read-outs stand apart in the source and are kept apart here.

Tests used:
[1] = system: Key Grass and Sedge Weeds as well as Grass Crops; assay: Post-emergent Test II herbicidal activity (Table 16); format: in vivo; settings: post-emergence, 336 h, 14 d; for pest or weed control at 35 g/ha: 35 g ai/ha; for pest or weed control at 70 g/ha: 70 g ai/ha; for pest or weed control at 140 g/ha: 140 g ai/ha
In short: (§1)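 Visual injury rating (0 = none, 100 = complete kill) taken 14 d after treatment, relative to untreated plants. Compounds in acetone/DMSO with crop oil concentrate and Triton X-155 were track-sprayed at 187 L/ha onto seedlings at the first-second true leaf stage.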

[2] = system: Key Broadleaf Weed and Crop Species; assay: Post-emergent Test II herbicidal activity (Table 15); format: in vivo; settings: post-emergence, 336 h, 14 d; for pest or weed control at 35 g/ha: 35 g ai/ha; for pest or weed control at 70 g/ha: 70 g ai/ha; for pest or weed control at 140 g/ha: 140 g ai/ha
In short: as §1

[3] = Cyperus esculentus, yellow nutsedge (Cyperus esculentus), read-out: Visual Growth Reduction (%) 14 Days After Application, CYPES
[4] = Echinochloa crus-galli, barnyardgrass (Echinochloa crus-galli), read-out: Visual Growth Reduction (%) 14 Days After Application, ECHCG
[5] = Oryza sativa, rice (Oryza sativa), read-out: Visual Growth Reduction (%) 14 Days After Application, ORYSA
[6] = Setaria faberi, giant foxtail (Setaria faberi), read-out: Visual Growth Reduction (%) 14 Days After Application, SETFA
[7] = Triticum aestivum, wheat, spring (Triticum aestivum), read-out: Visual Growth Reduction (%) 14 Days After Application, TRZAS
[8] = Zea mays, maize, corn (Zea mays), read-out: Visual Growth Reduction (%) 14 Days After Application, ZEAMX
[9] = Abutilon theophrasti, velvetleaf (Abutilon theophrasti), read-out: Visual Growth Reduction (%) 14 Days After Application, ABUTH
[10] = Amaranthus retroflexus, redroot pigweed (Amaranthus retroflexus), read-out: Visual Growth Reduction (%) 14 Days After Application, AMARE
[11] = Brassica napus, oilseed rape, canola (Brassica napus), read-out: Visual Growth Reduction (%) 14 Days After Application, BRSNN
[12] = Chenopodium album, lambsquarters (Chenopodium album), read-out: Visual Growth Reduction (%) 14 Days After Application, CHEAL
[13] = Euphorbia heterophylla, wild poinsettia (Euphorbia heterophylla), read-out: Visual Growth Reduction (%) 14 Days After Application, EPHHL
[14] = Helianthus annuus, sunflower (Helianthus annuus), read-out: Visual Growth Reduction (%) 14 Days After Application, HELAN

SMILES	pest or weed control at 35 g/ha [1, 3] [%]	pest or weed control at 70 g/ha [1, 3] [%]	pest or weed control at 140 g/ha [1, 3] [%]	pest or weed control at 35 g/ha [1, 4] [%]	pest or weed control at 140 g/ha [1, 4] [%]	pest or weed control at 35 g/ha [1, 5] [%]	pest or weed control at 70 g/ha [1, 5] [%]	pest or weed control at 140 g/ha [1, 5] [%]	pest or weed control at 35 g/ha [1, 6] [%]	pest or weed control at 70 g/ha [1, 6] [%]	pest or weed control at 140 g/ha [1, 6] [%]	pest or weed control at 35 g/ha [1, 7] [%]	pest or weed control at 70 g/ha [1, 7] [%]	pest or weed control at 140 g/ha [1, 7] [%]	pest or weed control at 35 g/ha [1, 8] [%]	pest or weed control at 70 g/ha [1, 8] [%]	pest or weed control at 140 g/ha [1, 8] [%]	pest or weed control at 35 g/ha [2, 9] [%]	pest or weed control at 70 g/ha [2, 9] [%]	pest or weed control at 140 g/ha [2, 9] [%]	further results
Nc1c(F)c(-c2ccc3[nH]ccc3c2)nc(C(=O)O)c1Cl [Compound 1.04]	0 to 29	0 to 29	0 to 29	0 to 29	85 to 94	0 to 29	0 to 29	0 to 29	0 to 29	0 to 29	0 to 29	0 to 29	0 to 29	0 to 29	0 to 29	0 to 29	0 to 29	45 to 59	0 to 29	0 to 29	pest or weed control at 35 g/ha [2, 10]: 60 to 74%; pest or weed control at 70 g/ha [2, 10]: 60 to 74%; pest or weed control at 140 g/ha [2, 10]: 60 to 74%; pest or weed control at 35 g/ha [2, 11]: 30 to 44%; pest or weed control at 70 g/ha [2, 11]: 45 to 59%; pest or weed control at 140 g/ha [2, 11]: 45 to 59%; pest or weed control at 35 g/ha [2, 12]: 45 to 59%; pest or weed control at 70 g/ha [2, 12]: 60 to 74%; pest or weed control at 140 g/ha [2, 12]: 60 to 74%; pest or weed control at 35 g/ha [2, 13]: 95 to 100%; pest or weed control at 70 g/ha [2, 13]: 95 to 100%; pest or weed control at 140 g/ha [2, 13]: 95 to 100%; pest or weed control at 35 g/ha [2, 14]: 45 to 59%; pest or weed control at 70 g/ha [2, 14]: 45 to 59%; pest or weed control at 140 g/ha [2, 14]: 85 to 94%; melting point: 180 to 182 °C
Nc1c(F)c(-c2ccc3occc3c2)nc(C(=O)O)c1Cl [Compound 2.02]	0 to 29	0 to 29	0 to 29	85 to 94	95 to 100	0 to 29	0 to 29	0 to 29	60 to 74	60 to 74	75 to 84	0 to 29	30 to 44	45 to 59	95 to 100	95 to 100	95 to 100	45 to 59	85 to 94	85 to 94	pest or weed control at 70 g/ha [1, 4]: 85 to 94%; pest or weed control at 35 g/ha [2, 10]: 75 to 84%; pest or weed control at 70 g/ha [2, 10]: 95 to 100%; pest or weed control at 140 g/ha [2, 10]: 95 to 100%; pest or weed control at 35 g/ha [2, 11]: 0 to 29%; pest or weed control at 70 g/ha [2, 11]: 30 to 44%; pest or weed control at 140 g/ha [2, 11]: 30 to 44%; pest or weed control at 35 g/ha [2, 12]: 95 to 100%; pest or weed control at 70 g/ha [2, 12]: 95 to 100%; pest or weed control at 140 g/ha [2, 12]: 95 to 100%; pest or weed control at 35 g/ha [2, 13]: 75 to 84%; pest or weed control at 70 g/ha [2, 13]: 95 to 100%; pest or weed control at 140 g/ha [2, 13]: 95 to 100%; pest or weed control at 35 g/ha [2, 14]: 75 to 84%; pest or weed control at 70 g/ha [2, 14]: 85 to 94%; pest or weed control at 140 g/ha [2, 14]: 95 to 100%; melting point: 165 to 167 °C
